Among the data in patent US11168086B2, “Methods of synthesizing pyrazine compounds” (Hoffmann-La Roche Inc., priority 2015, dated 2021) are EC50 values, retold here.

For one assay, the system named is HBV. Briefly: HBV inhibition assay: anti-HBV activity in vitro in HepG2.2.15 cells (extracellular HBV DNA by qPCR). The format is cell-based. The following applies: Hepatitis B virus, 120 h, five days after compound treatment, extracellular HBV DNA in culture supernatant by qPCR, concentration at which HBV replication is inhibited by 50%. From the text: Example 441: HBV Inhibition Assays
Cell Line and Culture Conditions:
HepG2.2.15 is a stably-transfected cell line containing the HBV genome. It is derived from the hepatoblastoma cell line Hep G2 (American Type Culture Collection, ATCC® HB-8065™) by the published procedures described in reference: MA Selles et al. Proc. Natl. Acad. Sci. USA 1987, 84, 1005-1009. The cell line was maintained in Dulbecco's modified Eagle's medium (DMEM)-F12 medium supplemented with 10% fetal bovine serum, 100 U/mL penicillin, 100 μg/mL streptomycin, and 0.5 mg/mL of G418.
Anti-HBV Activity In Vitro:
HepG2.2.15 cells were seeded into 96-well plates (3×10^4 cells in 100 μL media per well) and incubated overnight at 37° C. The test compounds were serially half-log diluted in DMSO, then diluted 100 times in culture media. 100 μL diluted compounds were added into the plates to reach 0.5% final concentration of DMSO in every well. Five days after compound treatment, culture supernatant was collected for further analysis.
For quantitative PCR detection of extracellular HBV DNA, culture supernatant was processed by Proteinase K digestion. After heat inactivation of the enzyme, the samples were subjected to HBV DNA quantification by qPCR. The effective compound concentration at which
HBV replication is inhibited by 50% (EC50) was determined.
In general terms: In qPCR the cycle at which signal appears reflects the starting amount.
Usually EC50 stands for the concentration giving half of the maximal effect. `O=C(Nc1ccc(F)c(Cl)c1)N1CCn2ncc(-c3ccc(F)cc3)c2C1` [Example 21, N-(3-chloro-4-fluoro-phenyl)-3-(4-fluorophenyl)-6,7-dihydro-4H-pyrazolo[1,5-a]pyrazine-5-carboxamide]: the EC50 was found to be 0.076 µM. Take `O=C(Nc1ccc(F)c(Cl)c1)N1CCn2ncc(-c3ccccc3F)c2C1` [Example 24, N-(3-chloro-4-fluoro-phenyl)-3-(2-fluorophenyl)-6,7-dihydro-4H-pyrazolo[1,5-a]pyrazine-5-carboxamide]: the EC50 was found to be 0.033 µM.

For the compound `O=C(Nc1cccc(Cl)c1)N1CCn2ncc(-c3ccccc3F)c2C1` [Example 30, N-(3-chlorophenyl)-3-(2-fluorophenyl)-6,7-dihydro-4H-pyrazolo[1,5-a]pyrazine-5-carboxamide], the midpoint of the response, the EC50, lay at 0.072 µM. The compound `O=C(Nc1ccc(F)cc1)N1CCn2ncc(-c3ccccc3F)c2C1` [Example 33, 3-(2-fluorophenyl)-N-(4-fluorophenyl)-6,7-dihydro-4H-pyrazolo[1,5-a]pyrazine-5-carboxamide] gave an EC50 of 0.085 µM. On to `O=C(Nc1ccc(F)c(C(F)(F)F)c1)N1CCn2ncc(-c3ccccc3F)c2C1` [Example 34, 3-(2-fluorophenyl)-N-[4-fluoro-3-(trifluoromethyl)phenyl]-6,7-dihydro-4H-pyrazolo[1,5-a]pyrazine-5-carboxamide], for which the EC50 came to 0.052 µM. The same measure, in the same setting: with `O=C(Nc1ccc(F)c(Cl)c1)N1CCn2ncc(-c3ccc(F)cc3F)c2C1` [Example 50, N-(3-chloro-4-fluoro-phenyl)-3-(2,4-difluorophenyl)-6,7-dihydro-4H-pyrazolo[1,5-a]pyrazine-5-carboxamide] the figure was 0.036 µM. Same read-out and setting: the value for `O=C(Nc1cc(F)c(F)c(F)c1)N1CCn2ncc(-c3ccc(F)cc3F)c2C1` [Example 51, 3-(2,4-difluorophenyl)-N-(3,4,5-trifluorophenyl)-6,7-dihydro-4H-pyrazolo[1,5-a]pyrazine-5-carboxamide] was 0.068 µM; that for `CC1Cn2ncc(-c3ccc(F)cc3)c2CN1C(=O)Nc1cc(F)c(F)c(F)c1` (stereo not drawn) [Example 53, 3-(4-fluorophenyl)-6-methyl-N-(3,4,5-trifluorophenyl)-6,7-dihydro-4H-pyrazolo[1,5-a]pyrazine-5-carboxamide] was 0.034 µM. As for `CC1Cn2ncc(-c3ccc(F)cc3)c2CN1C(=O)Nc1ccc(F)c(Cl)c1` (stereo not drawn) [Example 61, N-(3-chloro-4-fluoro-phenyl)-3-(4-fluorophenyl)-6-methyl-6,7-dihydro-4H-pyrazolo[1,5-a]pyrazine-5-carboxamide], the response was half-maximal at 0.029 µM (EC50). With `O=C(Nc1ccc(F)c(Cl)c1)N1CCn2ncc(-c3cc(C(F)(F)F)ccn3)c2C1` [Example 67, N-(3-chloro-4-fluoro-phenyl)-3-[4-(trifluoromethyl)-2-pyridyl]-6,7-dihydro-4H-pyrazolo[1,5-a]pyrazine-5-carboxamide], the response was half-maximal at 0.029 µM (EC50). Still for that read-out and setting: the value for `Cc1cc(-c2cnn3c2CN(C(=O)Nc2ccc(F)c(Cl)c2)CC3)ncc1F` [Example 68, N-(3-chloro-4-fluoro-phenyl)-3-(5-fluoro-4-methyl-2-pyridyl)-6,7-dihydro-4H-pyrazolo[1,5-a]pyrazine-5-carboxamide] was 0.075 µM; that for `O=C(Nc1ccc(F)c(Cl)c1)N1CCn2ncc(C3CCCCC3)c2C1` [Example 73, N-(3-chloro-4-fluoro-phenyl)-3-cyclohexyl-6,7-dihydro-4H-pyrazolo[1,5-a]pyrazine-5-carboxamide] was 0.045 µM. On the same count and under the same terms, with `N#Cc1cc(NC(=O)N2CCn3ncc(-c4ccc(F)cn4)c3C2)ccc1F` [Example 76, N-(3-cyano-4-fluoro-phenyl)-3-(5-fluoro-2-pyridyl)-6,7-dihydro-4H-pyrazolo[1,5-a]pyrazine-5-carboxamide] the figure was 0.095 µM; with `O=C(Nc1ccc(F)c(Cl)c1)N1CCn2ncc(C3CCCC3)c2C1` [Example 78, N-(3-chloro-4-fluoro-phenyl)-3-cyclopentyl-6,7-dihydro-4H-pyrazolo[1,5-a]pyrazine-5-carboxamide], 0.029 µM. As for `N#Cc1cc(NC(=O)N2CCn3ncc(C4CCCC4)c3C2)ccc1F` [Example 79, N-(3-cyano-4-fluoro-phenyl)-3-cyclopentyl-6,7-dihydro-4H-pyrazolo[1,5-a]pyrazine-5-carboxamide], the EC50 worked out at 0.028 µM. Still for that read-out and setting: the value for `Cc1cc(NC(=O)N2CCn3ncc(-c4ccc(F)cc4)c3C2)ccc1F` [Example 81, N-(4-fluoro-3-methyl-phenyl)-3-(4-fluorophenyl)-6,7-dihydro-4H-pyrazolo[1,5-a]pyrazine-5-carboxamide] was 0.032 µM. `CC1Cn2ncc(-c3ccc(F)cc3F)c2CN1C(=O)Nc1ccc(F)c(C#N)c1` (stereo not drawn) [Example 85, N-(3-cyano-4-fluoro-phenyl)-3-(2,4-difluorophenyl)-6-methyl-6,7-dihydro-4H-pyrazolo[1,5-a]pyrazine-5-carboxamide] came in with an EC50 of 0.011 µM. For `CC1Cn2ncc(-c3ccc(F)cc3)c2CN1C(=O)Nc1ccc(F)c(C#N)c1` (stereo not drawn) [Example 86, N-(3-cyano-4-fluoro-phenyl)-3-(4-fluorophenyl)-6-methyl-6,7-dihydro-4H-pyrazolo[1,5-a]pyrazine-5-carboxamide], a half-maximal effect (EC50) was put at 0.066 µM. Turning to `CC1Cn2ncc(-c3ccc(F)cc3F)c2CN1C(=O)Nc1ccc(F)c(Cl)c1` (stereo not drawn) [Example 92, N-(3-chloro-4-fluoro-phenyl)-3-(2,4-difluorophenyl)-6-methyl-6,7-dihydro-4H-pyrazolo[1,5-a]pyrazine-5-carboxamide], the response was half-maximal at 0.013 µM (EC50). The same measure, in the same setting: with `CC1Cn2ncc(-c3ccc(F)cn3)c2CN1C(=O)Nc1ccc(F)c(Cl)c1` (stereo not drawn) [Example 94, N-(3-chloro-4-fluoro-phenyl)-3-(5-fluoro-2-pyridyl)-6-methyl-6,7-dihydro-4H-pyrazolo[1,5-a]pyrazine-5-carboxamide] the figure was 0.033 µM; with `CC1Cn2ncc(C3CCCC3)c2CN1C(=O)Nc1ccnc(Cl)c1` (stereo not drawn) [Example 96, N-(2-chloro-4-pyridyl)-3-cyclopentyl-6-methyl-6,7-dihydro-4H-pyrazolo[1,5-a]pyrazine-5-carboxamide], 0.072 µM; with `CC1Cn2ncc(-c3ccc(F)cn3)c2CN1C(=O)Nc1cc(F)c(F)c(F)c1` (stereo not drawn) [Example 99, 3-(5-fluoro-2-pyridyl)-6-methyl-N-(3,4,5-trifluorophenyl)-6,7-dihydro-4H-pyrazolo[1,5-a]pyrazine-5-carboxamide], 0.024 µM. In the case of `CC1Cn2ncc(-c3ccc(F)cn3)c2CN1C(=O)Nc1ccc(F)c(C#N)c1` (stereo not drawn) [Example 100, N-(3-cyano-4-fluoro-phenyl)-3-(5-fluoro-2-pyridyl)-6-methyl-6,7-dihydro-4H-pyrazolo[1,5-a]pyrazine-5-carboxamide], the EC50 was 0.061 µM. Compound `C[C@H]1Cn2ncc(-c3ccc(F)cc3)c2CN1C(=O)Nc1ccc(F)c(Cl)c1` [Example 102, (6S)—N-(3-chloro-4-fluoro-phenyl)-3-(4-fluorophenyl)-6-methyl-6,7-dihydro-4H-pyrazolo[1,5-a]pyrazine-5-carboxamide] gave an EC50 of 0.014 µM. The same measure, in the same setting: with `C#Cc1cc(NC(=O)N2CCn3ncc(-c4ccc(F)cc4)c3C2)ccc1F` [Example 122, N-(3-ethynyl-4-fluoro-phenyl)-3-(4-fluorophenyl)-6,7-dihydro-4H-pyrazolo[1,5-a]pyrazine-5-carboxamide] the figure was 0.093 µM.

Turning to `O=C(Nc1ccc(F)c(Cl)c1)N1CCn2cnc(-c3ccc(F)cc3)c2C1` [Example 127, N-(3-chloro-4-fluoro-phenyl)-1-(4-fluorophenyl)-6,8-dihydro-5H-imidazo[1,5-a]pyrazine-7-carboxamide], the EC50 stood at 0.086 µM.

Staying with this assay, now noted: five days after compound treatment, extracellular HBV DNA in culture supernatant by qPCR, concentration at which HBV replication is inhibited by 50%.
`CC1C(C#N)CC(=O)N1c1cnn2c1CN(C(=O)Nc1cc(F)c(F)c(F)c1)[C@@H](C)C2` (single isomer, unassigned) [Example 420-1] showed an EC50 of 0.027 µM. Still for that read-out and setting: with `CC1C(C#N)CC(=O)N1c1cnn2c1CN(C(=O)Nc1cc(F)c(F)c(F)c1)[C@@H](C)C2` (single isomer, unassigned) [Example 420-2] the figure was 0.03 µM; with `CC1C(C#N)CC(=O)N1c1cnn2c1CN(C(=O)Nc1cc(F)c(F)c(F)c1)[C@@H](C)C2` (single isomer, unassigned) [Example 420-3], 0.003 µM; with `C[C@H]1Cn2ncc(N3CC(c4ccccc4)C(O)C3=O)c2CN1C(=O)Nc1cc(F)c(F)c(F)c1` (single isomer, unassigned) [Example 438-1], 0.01 µM.

As to `C[C@H]1Cn2ncc(N3CC(c4ccccc4)C(O)C3=O)c2CN1C(=O)Nc1cc(F)c(F)c(F)c1` (single isomer, unassigned) [Example 438-2], a half-maximal effect (EC50) was put at 0.108 µM. `C[C@H]1Cn2ncc(N3CC(c4ccccc4)C(O)C3=O)c2CN1C(=O)Nc1cc(F)c(F)c(F)c1` (single isomer, unassigned) [Example 438-3] had an EC50 of 0.044 µM. On the same count and under the same terms, with `C[C@H]1Cn2ncc(N3CC(c4ccccc4)C(O)C3=O)c2CN1C(=O)Nc1cc(F)c(F)c(F)c1` (single isomer, unassigned) [Example 438-4] the figure was 0.01 µM.
